Results: patent US10882852B1, “3-vinylquinolines as cancer cells inhibitors” (King Abdulaziz University, priority 2020, dated 2021)
Where “and” joins values, the source holds several entries; their conditions need not be identical. Identical values can stand only once. Like-named read-outs stand apart in the source and are kept apart here.

Experiments:
[1] = test system: MCF-7 breast cancer cells; assay: MTT cell viability assay, MCF-7; format: cell-based, human
Protocol: (§1) All the human tumour cell lines MCF-7, HCT-116, HL-60 and HeLa were cultured in Dulbecco's Modified Eagle's Medium (DMEM) with 10% fetal bovine serum, 2 mM L-glutamine and 100 µg/mL penicillin/streptomycin. Cells were maintained at 37° C. in 5% CO2 in a humidified incubator. All cells were sub-cultured 3 times/week by trypsinization using TrypLE Express (1×).
(§2) The quinoline compounds were evaluated for antiproliferative effect using the MTT viability assay of four cancer cell lines (MCF-7, HCT-116, HL-60 and HeLa) and normal breast cells MCF-10A to calculate the relative IC50 values for each compound. Cells were seeded in triplicate in 96-well plates at a density of 10×10^3 cells/ml in a total volume of 200 μl per well. 0.1% of DMSO was used as a vehicle control. After this time, they were treated with 2 μl test compound which had been pre-prepared as stock solutions in ethanol to furnish the concentration range of study, 1 nM to 50 μM, and re-incubated for a further 72 h. The culture medium was then removed, and the cells washed with 100 μL phosphate buffered saline (PBS) and 50 μL MTT added, to reach a final concentration of 1 mg/mL MTT added. Cells were incubated for 2 h in darkness at 37° C. At this point solubilisation was begun through the addition of […] DMSO and the cells maintained at room temperature in darkness for 20 min to ensure thorough colour diffusion before reading the absorbance. Plates were incubated for 72 hours at 37° C.+5% CO2, The MTT (5 mg/mL in PBS) was added and incubated for another 4 h, the optical density was detected with a microplate reader at 570 nm. Results were expressed as percentage viability relative to vehicle control (100%). Dose response curves were plotted and IC50 values (concentration of drug resulting in 50% reduction in cell survival) were obtained using the commercial software package Prism (GraphPad Software, Inc., La Jolla, Calif., USA). All the experiments were repeated in at least three independent experiments.

[2] = test system: HeLa cervical cancer cells; assay: MTT cell viability assay, HeLa; format: cell-based, human
Protocol: as §1, §2

bovine brain tubulin = assay: Tubulin polymerization assay; format: biochemical; settings: inhibition of tubulin polymerization; tubulin at 10 μM; read-out: Tubulin assembly IC50 ± SD
Protocol: The assembly of purified bovine tubulin was monitored using a kit, BK006, purchased from Cytoskeleton Inc., (Denver, Colo., USA). The assay was carried out in accordance with the manufacturer's instructions using the standard assay conditions. […] Light is scattered proportionally to the concentration of polymerized microtubules in the assay. Therefore, tubulin assembly was monitored turbidimetrically at 340 nm in a Spectramax 340 PC spectrophotometer (Molecular Devices, Sunnyvale, Calif., USA). The concentration that inhibits tubulin polymerization by 50% (IC50) was determined using area under the curve (AUC). The AUC of the untreated controls were considered as 100% polymerization. The IC50 value for each compound was computed using GraphPad Prism Software.

[3] = test system: MCF-10A normal epithelial breast cells; assay: MTT cell viability assay, normal breast cells; format: cell-based, human; settings: 72 h
Protocol: as §2, with “Dose response curves were plotted and IC50 values (concentration of drug resulting in 50% reduction in cell survival) were obtained using the commercial software package Prism (GraphPad Software, Inc., La Jolla, Calif., USA). All the experiments were repeated in at least three independent experiments.” left out

MCF-7 cells [4] = assay: Annexin V/PI apoptotic assay; format: cell-based, human; settings: MCF-7, 50 nM, 48 h; control 1%
Protocol: Apoptotic cell death was detected by flow cytometry using Annexin V and propidium iodide (PI). […] Cells were then harvested and prepared for flow cytometric analysis. Cells were washed in 1× binding buffer (20× binding buffer: 0.1M HEPES, pH 7.4; 1.4 M NaCl; 25 mM CaCl2) diluted in dH2O) and incubated in the dark for 30 minutes on ice in Annexin V-containing binding buffer [1:100]. Cells were then washed once in binding buffer and then re-suspended in […] binding buffer [1:1000]. Samples were analysed immediately using the BD accuri flow cytometer and prism software for analysis the data. Four populations are produced during the assay Annexin V and PI negative (Q4, healthy cells), Annexin V positive and PI negative (Q3, early apoptosis), Annexin V and PI positive (Q2, late apoptosis) and Annexin V negative and PI positive (Q1, necrosis).

[5] = test system: HCT-116 colon cancer cells; assay: MTT cell viability assay, HCT-116; format: cell-based, human; settings: HCT-116, MTT
Protocol: as §1, §2

[6] = test system: tubulin (colchicine binding site); assay: [3H]colchicine site competitive binding assay; settings: inhibition of [3H]colchicine binding
Protocol: The affinity of compounds 8c to colchicine binding site was determined using Colchicine Site Competitive Assay kit CytoDYNAMIX Screen15 (Cytoskeleton, Inc., CO, USA) using the standard protocol of the manufacturer to determine Ki values (μM). Biotin-labelled tubulin ([…]) in 10 μL of reaction buffer was mixed with [3H]colchicine (0.08 μM, PerkinElmer, Waltham, Mass.) and the test compounds (positive control colchicine, negative control vinblastine, G-1, fluorescent G-1, or 2-ME) in a 96-well plate (final volume: 100 μL). After incubating for 2 h at 37° C. with gentle shaking, streptavidin-labelled yttrium SPA beads ([…] in 20 μL reaction buffer, PerkinElmer, Waltham, Mass.) were added to each well and incubated for 30 min at 4° C. The plates were then read on a scintillation counter (Packard Instrument, Topcount Microplate Reader) and the percentage of inhibition was calculated

MCF-7 cells [7] = assay: ROS production by H2-DCFDA; format: cell-based, human; settings: MCF-7, 50 nM, 24 h; untreated 1.0%
Protocol: Mitochondrial membrane potential (Δψmt) was measured by flow cytometry with DiOC2(3) staining and additional labelling with an annexin V conjugate. After treatment with compound 8c (50 and 250 nM) and CA-4 (50 nM), cells were stained with DiOC2(3) dye for 30 min in the incubator then harvested and washed with PBS. DiOC2(3)-stained cells were resuspended with 1× annexin binding buffer then added annexin V conjugate and incubated at 37° C. for 15 min. Then the data obtained from flow cytometry were analyzed by Cell Quest software. Production of intracellular Reactive oxygen species (ROS) was measured using 2,7-dichlorofluorescin diacetate (H2-DCFDA) dye. MCF-7 cells were seeded and treated either with vehicle (0.1% DMSO) or with compound 8c (50 and 250 nM) and CA-4 (50 nM) for different time 6, 12 and 24 h. H2O2 was used as a positive control. The amount of ROS generated was estimated after 2 h of selected compound treatment. The cells were collected by centrifugation and washed twice with PBS. Cells were then incubated with DCFDA dye (25 μM) in dark at 37° C. for 1 h. Fluorescence spectra (510-600 nm) were monitored using an excitation wavelength of 488 nm

HL-60 leukemia cells = assay: MTT cell viability assay, HL-60; format: cell-based, human
Protocol: as §1, §2

MCF-7 cells [8] = assay: Cell cycle analysis by PI flow cytometry; format: cell-based, human; settings: MCF-7, 50 nM
Protocol: MCF-7 cells were seeded at a density of 1×10^5 cells/well in 6-well plates and treated with CA-4 (50 nM) and compound 8c (50 and 250 nM) for 24, 48 and 72 hr. The cells were collected by trypsinization and centrifuged at 800×g for 15 min. Cells were washed twice with ice-cold PBS and fixed in ice-cold 70% ethanol overnight at −20° C. Fixed cells were centrifuged at 800×g for 15 min and stained with 50 μg/mL of PI, containing 50 μg/mL of DNase-free RNase A, at 37° C. for 30 min. The DNA content of cells (10,000 cells/experimental group) was analysed by flow cytometer at 488 nm using a FACSCalibur flow cytometer (BD Biosciences, San Jose, Calif.) and all data were recorded and analyzed using the CellQuest Software (Becton-Dickinson).

caspase-9 = assay: Caspase-9 activation assay in MCF-7 cells; format: cell-based, human; settings: MCF-7, 50 nM
Protocol: (§3) Bcl-2 content of MCF-7 cells was assessed by ELISA Kit purchased Zymed laboratories, invitrogen immunodetection according to the manufacturer's protocol, and the enzyme concentration was expressed as ng/mL [55]. ELISA Assay for BAX content of MCF-7 cells was assessed by ELISA kit purchased from Cloud-Clone Crop. (USA) according to the manufacturer's protocol, and the enzyme concentration was expressed as ng/mL [56]. In Vitro Caspase-9 Activation Assay was performed using human active caspase-9 Invitrogen EIA kit and the procedure of the used kit was done according to the manufacturer's instructions.

MCF-7 cells [9] = assay: Colony formation assay; format: cell-based, human; settings: MCF-7, 50 and 250 nM
Protocol: MCF-7 cells (600 cells per well) were seeded in 6-well plates and incubated for 24 h before being then treated with different doses of the compound 8c (50 and 250 nM) for 14 days. […]. Then the cells were washed with PBS twice and subsequently fixed with 4% paraformaldehyde and stained with 0.05% crystal violet for 30 min. Finally, cells were visualized using an inverted microscope.

[10] = test system: pro-apoptotic protein Bax; assay: BAX ELISA in MCF-7 cells; format: cell-based, human; settings: MCF-7, 250 nM, 48 h
Protocol: as §3

[11] = test system: anti-apoptotic protein Bcl-2; assay: Bcl-2 ELISA in MCF-7 cells; format: cell-based, human; settings: MCF-7, 250 nM, 48 h
Protocol: as §3

MCF-7 cells [12] = assay: Wound healing (cell migration) assay; format: cell-based, human; settings: MCF-7, 24 h
Protocol: MCF-7 were grown in 6-well plates for 24 h, then the scratches were made using pipette tip and washed with PBS to remove non-adherent cell debris. Subsequently, the cells were treated with different concentrations of 8c for 24 h. The migrations across the wound area were photographed under a phase contrast microscopy.

## COc1ccc(/C=C\c2cc(OC)c(OC)c(OC)c2)cc1O [CA-4, Combretastatin A-4, reference compound]
[1]; MCF-7, MTT, 72 h, read-out: IC50 value (μM) MCF-7
  IC50: 0.019 ± 0.004 µM
[2]; 72 h, read-out: IC50 value (μM) HeLa
  IC50: 0.064 ± 0.004 µM
Bovine brain tubulin
  IC50: […]
[3]
  IC50: 6100 nM
MCF-7 cells [4]
  Annexin V-staining positive cells (total apoptotic cells): 29%
[5]; 72 h, read-out: IC50 value (μM) HCT-116
  IC50: 0.026 ± 0.001 µM
[6]
  Colchicine binding % ± SD, 1 μM drug: 86% and 86 ± 0.9%
  Colchicine binding % ± SD, 5 μM drug: 97% and 97 ± 2%
MCF-7 cells [7]
  ROS generation: 18.3%
HL-60 leukemia cells; HL-60, MTT, 72 h, mean ± spread of three experiments, read-out: IC50 value (μM) HL-60
  IC50: 0.076 ± 0.004 µM
MCF-7 cells [8]; 24 h
  percentage of cells in G2/M phase: 40.3%
  population in the sub-G1 phase (apoptosis): 23.5%
MCF-7 cells [8]; 48 h
  population in the sub-G1 phase (apoptosis): 31.1%
MCF-7 cells [8]; 48 h, control 9.2%
  percentage of cells in G2/M phase: 43.8%
MCF-7 cells [8]; 72 h
  percentage of cells in G2/M phase: 47.7%
  population in the sub-G1 phase (apoptosis): 37.4%

## COc1cc(C2=NC(=Cc3cc4ccc(C)cc4nc3OC)C(=O)O2)cc(OC)c1OC [Compound 8c, 4-[(2-Methoxy-7-methylquinolin-3-yl)methylene]-2-(3,4,5-trimethoxyphenyl)oxazol-5(4H)-one]
[1]; Homo sapiens, MCF7, MCF-7, MTT, read-out: IC50 in MCF-7
  IC50: 0.0107 µM
[1]; MCF-7, MTT, read-out: IC50 in MCF-7
  IC50: 0.0191 µM
[2]; Homo sapiens, read-out: IC50 in HeLa
  IC50: 0.0427 µM
Bovine brain tubulin
  IC50: 1200 nM and 1210 nM
caspase-9
  fold increase in caspase-9 expression: about 6 fold
MCF-7 cells [4]
  Annexin V-staining positive cells (total apoptotic cells): 15%
[5]; Homo sapiens, read-out: IC50 in HCT-116
  IC50: 0.0225 µM
[6]
  Colchicine binding % ± SD, 1 μM drug: 79% and 79 ± 2%
  Colchicine binding % ± SD, 5 μM drug: 87% and 87 ± 1%
MCF-7 cells [9]
  inhibition of colony formation: inhibited the colony formation in a dose dependent manner
[10]
  expression of pro-apoptotic protein Bax: up-regulation in the expression
HL-60 leukemia cells; HL-60, MTT, read-out: IC50 in HL-60
  IC50: 0.0107 µM
HL-60 leukemia cells; Homo sapiens, HL-60, HL-60, MTT, read-out: IC50 in HL-60
  IC50: 0.0191 µM
[11]
  expression level of anti-apoptotic protein Bcl-2: decrease in the expression level
MCF-7 cells [12]
  inhibition of cell migration (wound healing): migration inhibition in a dose dependent manner
